Reference: BindingDB's records for doi:10.1021/jm0603668 (Merck Frosst Canada, 2007)

Assay: Activity at human TP receptor in platelet rich plasma assessed as inhibition […]-induced platelet aggregation

SMILES | IC50 [nM]
CC(=O)c1cc(F)cc2c3c(n(Cc4ccc(Cl)cc4)c12)[C@@H](CC(=O)O)CC3 [[(3R)-4-(4-chlorobenzyl)-7-fluoro-5-acetyl-1,2,3,4-tetrahydrocyclopenta-[b]indol-3-yl]acetic acid] | 1400
O=C(O)C[C@H]1CCc2c1n(Cc1ccc(Cl)cc1)c1c(Br)cc(F)cc21 [[(3R)-5-bromo-4-(4-chlorobenzyl)-7-fluoro-1,2,3,4-tetrahydrocyclopenta[b]indol-3-yl]acetic acid] | 80
